Laboratory results: patent US12077513B2, “Process route of compound of formula (IV), crystal form and preparation method therefor” (SHANDONG DANHONG PHARMACEUTICAL CO., LTD., priority 2018, dated 2024)

Key:
[1] = Solid stability test, crystal form characterized by XRPD; format: physicochemical
Experimental: An electronic balance was used to accurately weigh 60 mg sample of crystal form B of compound (IV) (3 samples in parallel for each stability test condition). The samples were placed in a dry and clean 5 mL beaker and spread into a thin layer. The aluminum foil was pierced with holes and placed on the beaker, fixed with rubber bands. The beaker was placed in tbc environment of various stability test conditions and remained for sampling at investigation time. The samples were investigated at 60° C. (5 days, 10 days), 25° C./92.5% RH (5 days, 10 days), 40° C./75% RH (one month, two months, three months), 60° C./75% RH (one month, two months) and light (10 days) conditions. X-ray powder diffraction (XRPD) was used to characterize the solid under various conditions.

VAP-1/SSAO cell = VAP-1/SSAO cell (Homo sapiens (Human), UniProt Q16853); experiment: VAP-1 cell activity assay (HUVEC or CHO cells transfected with VAP-1/pCDNA (3.1) plasmid, Amplex Red); format: cell-based; settings: for Inhibitory activity against VAP-1/SSAO cells (conclusion in words): in vitro
Experimental: Amplex® Red Monoamine Oxidase Kit (Invitrogen #A12214) was used to determine the inhibitory effect of the sample on VAP-1 enzyme activity.
The HUVEC or CHO cells were plated onto a 6-well plate at a density of 0.8M/well, placed in a 37° C., 5% CO2 incubator for 24 hours, and then transfected with Lipo2000 reagent and VAP-1/pCDNA (3.1) plasmid. The medium was changed after 5 h (Lipo2000 is toxic to cells). After 24 h, the cells digested and plated into a 384-well plate at a density of 25 μl, 10000 cells/well, 6-7 h, and the cell medium was changed to the medium without FBS and the cell plate was placed in a 37° C. 5% CO2 incubator overnight.
• 1) Compound dilution: 4-fold serial dilution with 100% DMSO and diluted at 10 points. The initial concentration of the test compound was 0.5 mM (final concentration was […]); ECHO was used to transfer 100 nL of the compound solution to a 384-well cell detection plate. Negative control well: 100 nL DMSO; background control well: 100 nL DMSO+25 μL medium. • 2) Reaction was kept for 30 minutes at room temperature and protected from light. • 3) Amplex Red reagent+HRP+benzylamine substrate working solution preparation: • Amplex Red reagent+HRP+benzylamine substrate working solution (200 μM Amplex Red reagent+1 U/mL HRP+1 mM benzylamine): 45 μL of 20 mM Amplex Red reagent mother liquor, 22.5 μL of 200 U/mL horseradish peroxidase (HRP) mother liquor and 45 μL of 100 mM benzylamine were added to 4.3875 mL of 1× reaction buffer. • 4) After 30 minutes, 25 μL of the substrate working solution was added to a 384-well plate. […]

[2] = target: Human recombinant VAP-1/SSAO enzyme (Homo sapiens (Human), UniProt Q16853); experiment: Human VAP-1 enzyme activity assay (Amplex Red Monoamine Oxidase Kit); format: biochemical; settings: for Inhibitory activity against human recombinant VAP-1/SSAO enzyme (conclusion in words): in vitro
Experimental: Human VAP-1 Enzyme Activity Assay:
Amplex® Red Monoamine Oxidase Kit (Invitrogen #A12214) was used to determine the inhibitory effects of the sample on VAP-1 enzyme activity. 100 nL Test compound (the solvent was DMSO) that had been gradiently diluted was added to a 384-well plate. 25 μL 10 nM VAP-1 enzyme solution was added, and the solution was incubated at room temperature for 30 minutes. The substrate mixture which had been added […] (200 μM Amplex Red, 1 U/mL HRP, 1 mM Benzylamine) was incubated at room temperature for 60 minutes. After the incubation, the fluorescence signal was read with a microplate reader Envision (excitation light wavelength 530-560 nm, emission light wavelength 590 nm). The fluorescence signal value after removing the background signal was analyzed with Prism software. The IC50 of the sample to the VAP-1 enzyme was calculated.

[3] = listed as crystal form B of the compound of formula (IV)

Sequence of VAP-1/SSAO cell (Q16853 whole entry): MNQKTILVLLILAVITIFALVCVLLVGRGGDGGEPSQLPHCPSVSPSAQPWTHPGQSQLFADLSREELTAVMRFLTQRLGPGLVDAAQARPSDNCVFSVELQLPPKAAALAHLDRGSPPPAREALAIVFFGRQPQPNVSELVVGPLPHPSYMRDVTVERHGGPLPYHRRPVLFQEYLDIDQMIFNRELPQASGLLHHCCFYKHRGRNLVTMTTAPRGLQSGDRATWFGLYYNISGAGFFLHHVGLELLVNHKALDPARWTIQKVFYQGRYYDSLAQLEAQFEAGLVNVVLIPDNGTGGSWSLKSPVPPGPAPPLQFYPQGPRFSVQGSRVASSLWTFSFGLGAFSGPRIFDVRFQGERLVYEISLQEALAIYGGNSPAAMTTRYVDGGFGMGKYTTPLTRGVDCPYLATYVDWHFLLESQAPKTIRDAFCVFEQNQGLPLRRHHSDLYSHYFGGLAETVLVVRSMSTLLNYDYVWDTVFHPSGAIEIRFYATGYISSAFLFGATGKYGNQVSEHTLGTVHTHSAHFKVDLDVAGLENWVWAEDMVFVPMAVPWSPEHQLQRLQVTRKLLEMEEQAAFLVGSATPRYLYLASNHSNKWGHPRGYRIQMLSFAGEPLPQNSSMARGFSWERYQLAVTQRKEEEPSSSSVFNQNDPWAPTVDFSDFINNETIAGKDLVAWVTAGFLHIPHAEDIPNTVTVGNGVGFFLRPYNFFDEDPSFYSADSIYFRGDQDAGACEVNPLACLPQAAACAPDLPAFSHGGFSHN
Sequence of Human recombinant VAP-1/SSAO enzyme (Q16853 whole entry): as above

CC(C)n1nc(-c2ccc(OC/C(=C/F)CN)cc2)nc1C1CC1 [Crystal form A]
Stability (general statement in words) [1]: good stability

CC(C)n1nc(-c2ccc(OC/C(=C/F)CN)cc2)nc1C1CC1
IC50 (VAP-1/SSAO cell; VAP-1 transfected HUVEC or CHO cells, read-out: VAP-1/SSAO cell activity assay test IC50): 2.2 ± 1.49 nM
Inhibitory activity against VAP-1/SSAO cells (conclusion in words) (VAP-1/SSAO cell; [3]): strong inhibitory activity
IC50 ([2]; 30 min preincubation, benzylamine substrate, read-out: Human recombinant VAP-1/SSAO enzyme inhibitory activity IC50): 0.71 ± 0.21 nM
Inhibitory activity against human recombinant VAP-1/SSAO enzyme (conclusion in words) [2, 3]: strong inhibitory activity

CC(C)n1nc(-c2ccc(OC/C(=C/F)CN)cc2)nc1C1CC1 [Compound of formula (IV)]
Inhibitory activity against VAP-1/SSAO cells (conclusion in words) (VAP-1/SSAO cell): strong inhibitory activity
Inhibitory activity against human recombinant VAP-1/SSAO enzyme (conclusion in words) [2]: strong inhibitory activity
